Laboratory results from publication PMC9154774, “4-(3-Alkyl/benzyl-guanidino)benzenesulfonamides as selective carbonic anhydrase VII inhibitors” (Journal of Enzyme Inhibition and Medicinal Chemistry, 2022).

Tests used:
Experiment in all cases: stopped-flow CO2 hydration assay, phenol red
Format in all cases: biochemical
CA II (hCA II) = target: T1, CA II (hCA II) (Homo sapiens, UniProt P00918)
T1 construct: gene CA2; recombinant, obtained in-house as reported earlier
Excerpt: stopped-flow CO2 hydration assay, phenol red on CA II (hCA II)

CA I (hCA I) = target: T2, CA I (hCA I) (Homo sapiens, UniProt P00915)
T2 construct: gene CA1; recombinant, obtained in-house as reported earlier
T2 sequence (P00915 2-261): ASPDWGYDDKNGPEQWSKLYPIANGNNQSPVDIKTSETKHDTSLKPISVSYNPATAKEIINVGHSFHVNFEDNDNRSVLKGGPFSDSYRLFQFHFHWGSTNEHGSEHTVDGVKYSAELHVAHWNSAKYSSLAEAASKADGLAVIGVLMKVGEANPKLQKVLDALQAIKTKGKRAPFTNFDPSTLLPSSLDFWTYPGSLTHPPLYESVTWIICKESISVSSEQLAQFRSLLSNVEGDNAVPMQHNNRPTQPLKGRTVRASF
Excerpt: stopped-flow CO2 hydration assay, phenol red on CA I (hCA I)

CA VII (hCA VII) = target: T3, CA VII (hCA VII) (Homo sapiens, UniProt P43166)
T3 construct: gene CA7; recombinant, obtained in-house as reported earlier
T3 sequence (P43166 whole entry): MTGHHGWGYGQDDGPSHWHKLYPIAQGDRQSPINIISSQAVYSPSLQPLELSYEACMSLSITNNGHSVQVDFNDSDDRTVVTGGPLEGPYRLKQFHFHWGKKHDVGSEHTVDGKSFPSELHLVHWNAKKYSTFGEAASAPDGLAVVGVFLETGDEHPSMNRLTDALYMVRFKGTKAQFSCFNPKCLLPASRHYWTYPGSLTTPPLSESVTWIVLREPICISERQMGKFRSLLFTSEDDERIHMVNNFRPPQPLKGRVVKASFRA
Excerpt: stopped-flow CO2 hydration assay, phenol red on CA VII (hCA VII)

Row | SMILES | Ki (CA II (hCA II)) [nM] | Ki (CA I (hCA I)) [nM] | Ki (CA VII (hCA VII)) [nM]
1 | N=C(NCc1ccccc1)Nc1ccc(S(N)(=O)=O)cc1 [7a, 4-(3-Benzyl-guanidino)benzenesulfonamide] | 7.7 | 746 | 10.1
2 | COc1ccc(CNC(=N)Nc2ccc(S(N)(=O)=O)cc2)cc1 [7b, 4-(3-(4-Methoxybenzyl)guanidino)benzenesulfonamide] | 17.7 | 699 | 25.1
3 | N=C(NCc1ccc(F)cc1)Nc1ccc(S(N)(=O)=O)cc1 [7c, 4-(3-(4-Fluorobenzyl)guanidino)benzenesulfonamide] | 59.1 | 989 | 15
4 | N=C(NCc1cccc(F)c1)Nc1ccc(S(N)(=O)=O)cc1 [7d, 4-(3-(3-Fluorobenzyl)guanidino)benzenesulfonamide] | 1.6 | 782 | 60.7
5 | N=C(NCc1ccccc1F)Nc1ccc(S(N)(=O)=O)cc1 [7e, 4-(3-(2-Fluorobenzyl)guanidino)benzenesulfonamide] | 3.2 | 2990 | 44.9
6 | Cc1cccc(CNC(=N)Nc2ccc(S(N)(=O)=O)cc2)c1 [7f, 4-(3-(3-Methylbenzyl)guanidino)benzenesulfonamide] | 0.3 | 2930 | 0.9
7 | Cc1ccccc1CNC(=N)Nc1ccc(S(N)(=O)=O)cc1 [7g, 4-(3-(2-Methylbenzyl)guanidino)benzenesulfonamide] | 0.07 | 3160 | 0.4
8 | CC(NC(=N)Nc1ccc(S(N)(=O)=O)cc1)c1ccccc1 (stereo not drawn) [7h, 4-(3-(1-Phenylethyl)guanidino)benzenesulfonamide] | 9.6 | 1320 | 1.1
9 | Cc1cccc(CN(C)C(=N)Nc2ccc(S(N)(=O)=O)cc2)c1 [7i, 4-(3-Methyl-3-(3-methylbenzyl)guanidino)benzenesulfonamide] | 0.08 | 1140 | 0.7
10 | N=C(Nc1ccc(S(N)(=O)=O)cc1)N(Cc1ccccc1)Cc1ccccc1 [7j, 4-(3,3-Dibenzyl-guanidino)benzenesulfonamide] | 0.6 | 5850 | 3.2
11 | N=C(NCCOc1ccccc1)Nc1ccc(S(N)(=O)=O)cc1 [7k, 4-(3-(2-Phenoxyethyl)guanidino)benzenesulfonamide] | 6.9 | 4180 | 8.7
12 | CCCCCCCCNC(=N)Nc1ccc(S(N)(=O)=O)cc1 [7l, 4-(3-octylguanidino)benzenesulfonamide] | 0.9 | 730 | 2.2
13 | CCCCCCCCCCCCNC(=N)Nc1ccc(S(N)(=O)=O)cc1 [7m, 4–(3-Dodecylguanidino)benzenesulfonamide] | 0.4 | 930 | 0.2
14 | CCCCCCCCCCCCCCCCNC(=N)Nc1ccc(S(N)(=O)=O)cc1 [7n, 4-(3-hexadecylguanidino)benzenesulfonamide] | 0.06 | 2150 | 0.08
15 | N=C(Nc1ccc(S(N)(=O)=O)cc1)N1CCN(Cc2ccccc2)CC1 [7o, 4-Benzyl-N-(4-sulfamoylphenyl)piperazine-1-carboximidamide] | 0.1 | 3680 | 0.06
